These antisense oligonucleotides have a phosphorothioate backbone; sugars and methylation of C are not fully specified. Bounds are passed on as bounds.

Conditions in all cases: ASO
Data set [1] addresses RIPK2.
For data set [2], the target named is NCOA2.
In data set [3] the target is MAP4K4.
Note: test concentration or dose not given here.

In data set [1], AAAACAGTCACTTACATGCT gave a remaining target (mRNA or protein) (fraction of control) of 0.52.

Regarding AAAACTGACTGGGTGGGA, in data set [2], the remaining target (mRNA or protein) (fraction of control) is not below 1.

With AAATAACAGTCTTGAGCTTT, in data set [1], the remaining target (mRNA or protein) (fraction of control) worked out at 0.73. Take AACCACCAAACCTGCCCA: the remaining target (mRNA or protein) (fraction of control) in data set [2] was 0.42. On to AAGCCAACGATGACCCTA, for which the remaining target (mRNA or protein) (fraction of control) in data set [2] turned out to be 0.2. With AAGCCTGGGATTTTAGGGCA, the remaining target (mRNA or protein) (fraction of control) in data set [1] was determined as 0.15. ACTCATCTTGAACACATA registered a remaining target (mRNA or protein) (fraction of control) in data set [2] not below 1. AGAACTGGTCTTTCCTTC registered a remaining target (mRNA or protein) (fraction of control) in data set [2] of 0.92. With AGATGGCCTCCCCGTTCATG, the remaining target (mRNA or protein) (fraction of control) in data set [1] stood at 0.51. Same read-out and setting: to AGGCTTCTGTCATTTGGTTC belongs 0.3. In turn, AGGGTTGCTCATAGTTGC had a remaining target (mRNA or protein) (fraction of control) in data set [2] of 0.61. For the sequence ATAAAGCTTTAATACTCACG, in data set [1], the remaining target (mRNA or protein) (fraction of control) was 0.93. Still for that read-out and setting: to ATACTTCATAAAATCAAATT belongs not below 1; to ATCAGGCTGTTGACTTTATT, 0.53. Sequence ATCGGCTCGGGTCGGTCA came in with a remaining target (mRNA or protein) (fraction of control) in data set [2] of 0.38. As for ATGCAGCCCTTTGAGAACCA, the remaining target (mRNA or protein) (fraction of control) in data set [1] was 0.18.

In turn, ATGGCCTCCCCGTTCATGGT registered a remaining target (mRNA or protein) (fraction of control) in data set [1] of 0.51. Turning to ATGTAACTAAATCTAGCTTT, in data set [1], the remaining target (mRNA or protein) (fraction of control) worked out at 0.72. Take ATTCTCTTTCTTCTTGGG: the remaining target (mRNA or protein) (fraction of control) in data set [2] came out at 0.71. In turn, ATTGCATCTTAGACAAGTAA gave a remaining target (mRNA or protein) (fraction of control) in data set [1] not below 1. Still for that read-out and setting: the value for ATTTTCATGGAGCTGAGAGG was 0.68; that for CACCAAGGGCAATTTCATGC was 0.15.

CAGCAATATTTCCGTGTT: the remaining target (mRNA or protein) (fraction of control) in data set [2] stood at 0.88.

In data set [2], CATCCCACTCATCTTGAA displayed a remaining target (mRNA or protein) (fraction of control) not below 1.

As for CATGGTCCCGGGCGCTCAGG, the remaining target (mRNA or protein) (fraction of control) in data set [1] is not below 1. Sequence CATTTACTATAGACTTTG gave a remaining target (mRNA or protein) (fraction of control) in data set [2] of 0.79. The same measure, in the same setting: the value for CCAACATGCAAGATGCTA was 0.83; that for CCAAGTTGGTCAGGACAT was not below 1. Regarding CCACAAGTATTTCCGGGTAA, in data set [1], the remaining target (mRNA or protein) (fraction of control) came out at 0.36. Still for that read-out and setting: to CCAGGCTGCAGACGTTCTGA belongs 0.3; to CCCGTTCATGGTCCCGGGCG, 0.6. Regarding CCCTAAATTTCCTTGGTT, in data set [2], the remaining target (mRNA or protein) (fraction of control) was 0.82.

In data set [1], CCTCCCCGTTCATGGTCCCG registered a remaining target (mRNA or protein) (fraction of control) of 0.24. The same measure, in the same setting: to CGAACCAGAGCTGACTTCTT belongs 0.28; to CGTTCATGGTCCCGGGCGCT, 0.76. Consider CTATTAATTTTGTGTTAC, for which the remaining target (mRNA or protein) (fraction of control) in data set [2] is not below 1. On the same count and under the same terms, the value for CTCTGTGAAATTCGCAGT was not below 1; that for CTGCGCATGGAACTTCTG was 0.45; that for CTGGCTTCAGCAGTGTCA was 0.72. CTGTCAACATTTACTTGG: the remaining target (mRNA or protein) (fraction of control) in data set [2] was not below 1.

As for GAAGCATATGTAAAGATA, in data set [2], the remaining target (mRNA or protein) (fraction of control) was not below 1. Same read-out and setting: to GACGCCACCCTGGGAACC belongs 0.74; to GAGAGACAGCGAAGCACT, 0.29.

Take GAGCAGCGGAGTGTGGATGT: the remaining target (mRNA or protein) (fraction of control) in data set [1] is 0.3. As for GATAATTGTCCCTCCTTCTG, the remaining target (mRNA or protein) (fraction of control) in data set [1] is not below 1. In data set [1], GATACGCCCCTGCACGAGCG came in with a remaining target (mRNA or protein) (fraction of control) of 0.65. For the sequence GCAAGCTACCTGTGGAGT, the remaining target (mRNA or protein) (fraction of control) in data set [2] came to 0.5. GCAGATGGCCTCCCCGTTCA returned a remaining target (mRNA or protein) (fraction of control) in data set [1] of 0.84. Same read-out and setting: the value for GCAGGTCGGCGAGTTTGTGG was not below 1.

GCTGGGTTGGCCTGAGAC had a remaining target (mRNA or protein) (fraction of control) in data set [2] not below 1. Still for that read-out and setting: to GCTGTGCTTGGAGGCGAT belongs 0.43; to GGACATAGCAAGTCATCT, 0.62; to GGATTTCCCTCTGTCTCT, 0.32. On the same count and under the same terms, to GGCCCCAGCGCATCCTTG belongs 0.45.

In data set [1], GGCCTCCCCGTTCATGGTCC had a remaining target (mRNA or protein) (fraction of control) of 0.45.

As for GGGAAAAGCTGTGGTAAT, in data set [2], the remaining target (mRNA or protein) (fraction of control) was 0.79. As for GGTACGATCTATATGATCCT, the remaining target (mRNA or protein) (fraction of control) in data set [3] amounted to 0.8. The sequence GTACGTCCATTTGTTGAAAT showed a remaining target (mRNA or protein) (fraction of control) in data set [3] of 0.51. GTAGGCACGGAGGTCACT gave a remaining target (mRNA or protein) (fraction of control) in data set [2] not below 1. Take GTCAGTAGTGTCTAGTAATT: the remaining target (mRNA or protein) (fraction of control) in data set [1] is 0.52.

In data set [1], GTGCTCGGTGAGGTATATCA registered a remaining target (mRNA or protein) (fraction of control) of 0.18. Sequence GTTATACCTTAGATACTG displayed a remaining target (mRNA or protein) (fraction of control) in data set [2] of 0.84.

On to TAAACCTGACTGCTGCCACC, for which, in data set [3], the remaining target (mRNA or protein) (fraction of control) came out at 0.53. The sequence TATCCTTTTATGAAACACAT gave a remaining target (mRNA or protein) (fraction of control) in data set [1] of 0.69. In data set [2], TCAGCAGTGTCAGCAATA registered a remaining target (mRNA or protein) (fraction of control) not below 1. In turn, TCCAAATGACTTAAAGGCCA had a remaining target (mRNA or protein) (fraction of control) in data set [3] of 0.68. TCCCCGTTCATGGTCCCGGG gave a remaining target (mRNA or protein) (fraction of control) in data set [1] of 0.24. As for TCTATTAAACATTTTAAGAA, the remaining target (mRNA or protein) (fraction of control) in data set [1] is not below 1. For the sequence TCTGCCCTTTGCTGTCAT, in data set [2], the remaining target (mRNA or protein) (fraction of control) worked out at 0.59. TCTTTCATGATCAAGTCCCT displayed a remaining target (mRNA or protein) (fraction of control) in data set [1] of 0.42.

In data set [1], TGAAATTCATTGTCCAATAA showed a remaining target (mRNA or protein) (fraction of control) of 0.99. Turning to TGCACATTTGTCAGGTTT, in data set [2], the remaining target (mRNA or protein) (fraction of control) was 0.18.

For TGCACTTCATCTATGTTG, in data set [2], the remaining target (mRNA or protein) (fraction of control) was found to be 0.5. Sequence TGCATAGCTATATATATCGT showed a remaining target (mRNA or protein) (fraction of control) in data set [1] of 0.77. In the case of TGCCTTCCAGGTTCACTA, in data set [2], the remaining target (mRNA or protein) (fraction of control) stood at 0.99. The same measure, in the same setting: the value for TGCTGTGGGAAAACGGGC was 0.43. As to TGGACAATCATGGTTTTCAC, the remaining target (mRNA or protein) (fraction of control) in data set [3] amounted to 0.71. Sequence TGGTCCCGGGCGCTCAGGCC displayed a remaining target (mRNA or protein) (fraction of control) in data set [1] of 0.23. In data set [3], TGTAGGCATCTCTCCCCACT displayed a remaining target (mRNA or protein) (fraction of control) of 0.42. Sequence TTACATGCTTTTATTTTGAA came in with a remaining target (mRNA or protein) (fraction of control) in data set [1] of 0.5.

TTCATGGCACTGGTGGTA registered a remaining target (mRNA or protein) (fraction of control) in data set [2] of 0.85. For the sequence TTCTGAATCAGGTAAAGG, the remaining target (mRNA or protein) (fraction of control) in data set [2] is not below 1. Still for that read-out and setting: the value for TTTCTCCCATCCCACTCA was 0.87. TTTGATTCTTTCATATTTTA returned a remaining target (mRNA or protein) (fraction of control) in data set [3] of 0.82.

Values taken from the OligoGym collection.
